Assay results from US20170152263A1, “Substituted Indazole Compounds as IRAK4 Inhibitors” (AURIGENE DISCOVERY TECHNOLOGIES LIMITED, priority 2014, published 2017).
Structures can show the parent of a compound that is named as a salt.

Biological target: T1, recombinant IRAK-4 kinase (Homo sapiens, UniProt Q9NWZ3)
T1 construct: purchased Millipore, USA
T1 sequence (Q9NWZ3 1-460): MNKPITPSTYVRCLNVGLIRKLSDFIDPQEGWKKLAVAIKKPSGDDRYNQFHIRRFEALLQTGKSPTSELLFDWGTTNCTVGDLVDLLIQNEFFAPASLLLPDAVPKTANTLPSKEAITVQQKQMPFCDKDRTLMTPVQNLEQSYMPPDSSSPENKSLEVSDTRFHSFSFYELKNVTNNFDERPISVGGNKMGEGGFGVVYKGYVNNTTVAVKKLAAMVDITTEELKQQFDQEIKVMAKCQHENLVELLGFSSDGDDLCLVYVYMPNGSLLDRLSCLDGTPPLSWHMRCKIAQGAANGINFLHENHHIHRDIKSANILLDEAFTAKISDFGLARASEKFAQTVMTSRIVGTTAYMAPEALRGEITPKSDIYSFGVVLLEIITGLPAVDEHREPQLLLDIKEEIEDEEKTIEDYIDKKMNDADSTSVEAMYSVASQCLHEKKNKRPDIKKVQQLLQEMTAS
Assay: IRAK-4 biochemical assay (TR-FRET)
Details: IRAK-4 enzyme, 20 μM ATP; for inhibition at 0.1 µM: compound at 0.1 μM; for inhibition at 1 µM: compound at 1 μM; for IC50: dose response
Method: Compounds were tested for their potential to inhibit IRAK-4 enzyme in a TR-FRET assay using recombinant IRAK-4 kinase from Millipore, USA. The assay buffer was 50 mM Tris-HCl pH 7.5, 20 mM MgCl2, 1 mM EGTA, 2 mM DTT, 3 mM MnCl2 and 0.01% Tween 20.5 ng of IRAK-4 kinase was used for the assay. After pre-incubation of enzyme with test compound for 30 minutes at room temperature, a substrate mixture containing 100 nM Biotin Histone H3 (Millipore, USA) and 20 μM ATP (Sigma, USA) was added and the reaction was incubated for 30 min. Post incubation, the reaction was stopped by the addition of stop mix containing 40 mM EDTA, 1 nM of Europium-Anti-Phospho-Histone H3 (Ser10) antibody (Perkin Elmer, USA) and 20 nM SureLight Allophycocyanin-Streptavidin (Perkin Elmer, USA). The fluorescence emission at 615 nm and 665 nm were measured at an excitation of 340 nm and the percent inhibition was estimated from the ratio of the fluorescence intensities [(F665/F615)×10000]. […] The IC50 values were estimated by fitting the dose-response data to sigmoidal dose response (variable slope), curve fitting program using Graphpad Prism software Version 6.01.

Row | Structure (SMILES) | inhibition at 0.1 µM [%] | inhibition at 1 µM [%] | IC50 [nM]
1 | Cn1ncc2cc(N3CC[C@H](O)C3)c(NC(=O)c3coc(-c4ccnc(C5CC5)c4)n3)cc21 [Example 46, (S)-2-(2-cyclopropylpyridin-4-yl)—N—(5-(3-hydroxypyrrolidin-1-yl)-1-methyl-1H-indazol-6-yl)oxazole-4-carboxamide hydrochloride] | 93 | 97 | < 100
2 | Cn1cc2cc(N3CCC(O)CC3)c(NC(=O)c3cnn4cccnc34)cc2n1 [Example 47, N—(5-(4-hydroxypiperidin-1-yl)-2-methyl-2H-indazol-6-yl)pyrazolo[1,5-a]pyrimidine-3-carboxamide hydrochloride] | 34 | 89 | 100 to 250
3 | Cn1ncc2cc(N3CC[C@H](O)C3)c(NC(=O)c3cnn4cccnc34)cc21 [Example 48, (S)—N—(5-(3-hydroxypyrrolidin-1-yl)-1-methyl-1H-indazol-6-yl)pyrazolo[1,5-a]pyrimidine-3-carboxamide hydrochloride] | 25 | 80 | > 250
